# In publication PMC2774691, “Fluorescent Cascade and Direct Assays for Characterization of RAF Signaling Pathway Inhibitors” (Current Chemical Genomics, 2008):
# pIC50: −log10 of the molar value.
# How the values were obtained:
# RET V804L = target: T1, RET V804L (Homo sapiens, UniProt P07949, V804L); assay: FRET-based kinase profiling, RET V804L; assay type: biochemical
# T1 construct: purchased Invitrogen
# Procedure: (§1) The buffer consisted of 50 mM HEPES pH 7.5, 10 mM MgCl2, 1 mM EGTA, 0.01% Brij-35. Kinase reactions were typically initiated by the addition of either ATP or the active kinase and allowed to proceed for 1 hour at room temperature (RT). Following the 1 hour kinase assay, 5 µL of development reagent was added and the development reaction allowed to progress for 1 hour at RT, essentially as described previously.
# PDGFR α D842V = target: T2, PDGFR α D842V (Homo sapiens, UniProt P16234, D842V); assay: FRET-based kinase profiling, PDGFR α D842V; assay type: biochemical
# T2 construct: purchased Invitrogen
# Procedure: as §1
# RET Y791F = target: T3, RET Y791F (Homo sapiens, UniProt P07949, Y791F); assay: FRET-based kinase profiling, RET Y791F; assay type: biochemical
# T3 construct: purchased Invitrogen
# Procedure: as §1
# VEGFR3 = target: T4, VEGFR3 (Homo sapiens, UniProt P35916); assay: FRET-based kinase profiling, VEGFR3; assay type: biochemical
# T4 construct: purchased Invitrogen
# Procedure: as §1
# CRAF [1] = target: T5, CRAF (Homo sapiens, UniProt P04049, Y340D/Y341D); assay: FRET-based kinase profiling, C-RAF; assay type: biochemical; conditions: 1 µM inhibitor, ATP at Km app
# PDGFR α = target: T6, PDGFR α (Homo sapiens, UniProt P16234); assay: FRET-based kinase profiling, PDGFR α; assay type: biochemical
# T6 construct: purchased Invitrogen
# Procedure: as §1
# RET = target: T7, RET (Homo sapiens, UniProt P07949); assay: FRET-based kinase profiling, RET; assay type: biochemical
# T7 construct: purchased Invitrogen
# Procedure: as §1
# HIPK4 = target: T8, HIPK4 (Homo sapiens, UniProt Q8NE63); assay: FRET-based kinase profiling, HIPK4; assay type: biochemical
# T8 construct: purchased Invitrogen
# FLT3 D835Y = target: T9, FLT3 D835Y (Homo sapiens, UniProt P36888, D835Y); assay: FRET-based kinase profiling, FLT3 D835Y; assay type: biochemical
# T9 construct: purchased Invitrogen
# FLT3 = target: T10, FLT3 (Homo sapiens, UniProt P36888); assay: FRET-based kinase profiling, FLT3; assay type: biochemical
# T10 construct: purchased Invitrogen
# PDGFR α T674I = target: T11, PDGFR α T674I (Homo sapiens, UniProt P16234, T674I); assay: FRET-based kinase profiling, PDGFR α T674I; assay type: biochemical
# T11 construct: purchased Invitrogen
# Procedure: as §1
# [2] = test system: B-RAF, B-RAF V599E, and C-RAF; assay: RAF direct TR-FRET assays; assay type: biochemical; conditions: 100 μM ATP
# Procedure: Development of the TR-FRET assay for RAF using a fluorescein-MEK1 substrate and terbium-labeled phospho-[Ser 217/221] MEK1 antibody has been described. Briefly, 200 nM of fluorescein-MEK1 was used as a substrate in a 10 µL assay. Reactions were conducted in the same 384-well plate type and kinase buffer as described for the FRET assays, initiated by the addition of ATP, and allowed to proceed for 1 hour at RT. After one hour, a 10 µL solution of EDTA and terbium-labeled phospho-[Ser 217/221] MEK1 antibody in 20 mM Tris, pH 7.5 and 0.01% NP-40 was added for a final well volume of 20 µL with final concentrations of antibody and EDTA at 2 nM and 10 mM, respectively. Following a 1 hour incubation at RT, plates were read as described previously. For TR-FRET-based assays, the average maximum signal to basal ratio ( ± standard deviation) obtained using eight different kinases was 8.9 ± 1.0. Inhibition assays were performed by adding 2.5 µL of inhibitor to a 5 µL solution of kinase and substrate, followed by 2.5 µL of ATP. […] The inhibitor studies were conducted in quadruplicate.
# BRAF V599E-MEK1-ERK2 = assay: B-RAF V599E-MEK1-ERK2 triple cascade FRET assay; assay type: biochemical; conditions: 100 μM ATP; read-out: Inhibitor IC50, FRET Triple BRAF V599E-MEK1-ERK2
# MEK1-ERK2 = MEK1-ERK2 double cascade FRET assay; assay type: biochemical; conditions: 100 μM ATP; for pIC50: read-out: Inhibitor IC50, FRET Double MEK1-ERK2; for inhibition of MEK1-ERK2 double cascade assay: FRET
# [3] = test system: B-RAF, B-RAF V599E, or C-RAF triple cascades; assay: three RAF triple cascade FRET assays; assay type: biochemical; conditions: 100 μM ATP; for pIC50: one value or range for the three RAF triple cascades
# CRAF-MEK1-ERK2 = assay: C-RAF-MEK1-ERK2 triple cascade FRET assay; assay type: biochemical; conditions: 100 μM ATP; read-out: Inhibitor IC50, FRET Triple CRAF-MEK1-ERK2
# ERK2 = target: T12, ERK2 (Homo sapiens, UniProt P28482); assay: ERK2 direct FRET kinase assay; assay type: biochemical; conditions: 100 μM ATP; for pIC50: read-out: Inhibitor IC50, FRET Direct ERK2; for inhibition of ERK2 direct assay: FRET
# T12 construct: The following kinases were all full-length: B-RAF, unactive MEK1, active MEK1, unactive-fluorescein-labeled MEK1, active ERK2, and unactive ERK2; purchased Invitrogen
# Procedure: FRET-based kinase data was processed in two steps. […] In order to apply equation 1, the 0% and 100% phosphorylation controls were used to establish the minimum and maximum emission ratio values on each assay plate. The 0% phosphorylation control was obtained from a mock kinase reaction run in the absence of ATP. The 100% phosphorylation control was obtained from a mock kinase reaction containing fully phosphorphorylated control peptide. The percent phosphorylation was calculated using the following equation: […]
# BRAF-MEK1-ERK2 = assay: B-RAF-MEK1-ERK2 triple cascade FRET assay; assay type: biochemical; conditions: 100 μM ATP; read-out: Inhibitor IC50, FRET Triple BRAF-MEK1-ERK2
# BRAF V599E = target: T13, BRAF V599E (Homo sapiens, UniProt P15056, V600E); assay: B-RAF V599E direct TR-FRET assay (fluorescein-MEK1 substrate); assay type: biochemical; conditions: 100 μM ATP; read-out: Inhibitor IC50, TR-FRET Direct BRAF V599E
# T13 construct: amino acids 416-766 for B-RAF V599E and 306-648 for C-RAF; purchased Invitrogen
# Procedure: (§2) Briefly, 200 nM of fluorescein-MEK1 was used as a substrate in a 10 µL assay. Reactions were conducted in the same 384-well plate type and kinase buffer as described for the FRET assays, initiated by the addition of ATP, and allowed to proceed for 1 hour at RT. […] MEK1 antibody in 20 mM Tris, pH 7.5 and 0.01% NP-40 was added for a final well volume of 20 µL with final concentrations of antibody and EDTA at 2 nM and 10 mM, respectively. Following a 1 hour incubation at RT, plates were read as described previously. […] Inhibition assays were performed by adding 2.5 µL of inhibitor to a 5 µL solution of kinase and substrate, followed by 2.5 µL of ATP. […] The inhibitor studies were conducted in quadruplicate.
# CRAF [4] = target: T5, CRAF; assay: C-RAF direct TR-FRET assay (fluorescein-MEK1 substrate); assay type: biochemical; design: amino acids 416-766 for B-RAF V599E and 306-648 for C-RAF; purchased Invitrogen
# Procedure: as §2
# [5] = test system: activation of MEK1 by C-RAF; conditions: ~300 nM MEK1 as substrate; read-out: IC50, inhibition of activation of MEK1 by C-RAF; cited from earlier work
# BRAF = target: T14, BRAF (Homo sapiens, UniProt P15056); assay: B-RAF direct TR-FRET assay (fluorescein-MEK1 substrate); assay type: biochemical; conditions: 100 μM ATP; read-out: Inhibitor IC50, TR-FRET Direct BRAF
# T14 construct: The following kinases were all full-length: B-RAF, unactive MEK1, active MEK1, unactive-fluorescein-labeled MEK1, active ERK2, and unactive ERK2; purchased Invitrogen
# Procedure: as §2
# MEK1 activation = conditions: read-out: IC50, inhibition of MEK1 activation in Swiss 3T3 cells; cited from earlier work
# MEK1 = conditions: cited from earlier work
pIC50 [3],Compound,pIC50 (BRAF V599E-MEK1-ERK2),pIC50 (MEK1-ERK2),inhibition of MEK1-ERK2 double cascade assay (MEK1-ERK2),pIC50 (CRAF-MEK1-ERK2),pIC50 (ERK2),inhibition of ERK2 direct assay (ERK2),pIC50 (BRAF-MEK1-ERK2),"inhibition of B-RAF, B-RAF V599E and C-RAF TR-FRET direct assays [2]",further results
–,"CNC(=O)c1cc(Oc2ccc(NC(=O)Nc3ccc(Cl)c(C(F)(F)F)c3)cc2)ccn1 [BAY-43-9006, Sorafenib]",–,–,–,–,–,–,–,–,inhibition at 1 µM (RET V804L): 44%; inhibition at 10 µM (PDGFR α D842V): 3%; inhibition at 1 µM (RET Y791F): 80%; inhibition at 1 µM (VEGFR3): 40%; % inhibition C-RAF (CRAF [1]): 50%; inhibition at 1 µM (PDGFR α): 33%; inhibition at 10 µM (PDGFR α): 75%; inhibition at 1 µM (RET): 77%; inhibition at 1 µM (HIPK4): 45%; inhibition at 1 µM (FLT3 D835Y): 45%; inhibition at 1 µM (FLT3): 89%; inhibition at 10 µM (PDGFR α T674I): 37%
[…],O=C1Nc2ccc(I)cc2/C1=C/c1cc(Br)c(O)c(Br)c1 [GW5074],[…],< 6.40,no inhibition,[…],< 6.40,no inhibition,8.52,–,pIC50 ([2]; range over the three RAF isoforms): […]; inhibition of the three RAF triple cascade assays ([3]; FRET): […]
–,CN[C@@H]1C[C@H]2O[C@@](C)([C@@H]1OC)n1c3ccccc3c3c4c(c5c6ccccc6n2c5c31)C(=O)NC4 [Staurosporine],7.16,–,–,–,–,–,7.25,–,–
[…],N#CC(=C(/N)Sc1ccccc1N)/C(C#N)=C(/N)Sc1ccccc1N [U0126],[…],< 5.00,–,7.18,< 4.30,–,[…],very weak inhibitory activity,"pIC50 (MEK1 activation): ~7.15; preferential inhibition of MEK1 activation over MEK1 (MEK1; radiometric kinase assays): ~ 100 fold; pIC50 (MEK1; read-out: reported IC50, inhibition of MEK1): 4.89"
–,Cc1ccc(NC(=O)c2cccc(N(C)C)c2)cc1NC(=O)c1ccc(O)cc1 [ZM336372],7.49,< 4.30,no inhibition,7.52,< 4.30,no inhibition,6.40,–,–

Compound,pIC50 [3],pIC50 (BRAF V599E-MEK1-ERK2),pIC50 (MEK1-ERK2),inhibition of MEK1-ERK2 double cascade assay (MEK1-ERK2),pIC50 (CRAF-MEK1-ERK2),pIC50 (ERK2),inhibition of ERK2 direct assay (ERK2),pIC50 (BRAF-MEK1-ERK2),"inhibition of B-RAF, B-RAF V599E and C-RAF TR-FRET direct assays [2]",further results
COc1cccc(-c2cc(=O)c3ccccc3o2)c1N [PD98059],6.38 to 6.52,6.52,< 4.30,no inhibition,6.42,< 4.30,no inhibition,6.38,did not inhibit,"pIC50 (BRAF V599E): < 4.30; pIC50 (CRAF [4]; 100 μM ATP, read-out: Inhibitor IC50, TR-FRET Direct CRAF): < 4.30; inhibition of C-RAF in direct TR-FRET assay (CRAF [4]; fluorescein-labeled unactivated MEK1 substrate): neither U0126 nor PD98059 significantly inhibited C-RAF; pIC50 [5]: 5.15 to 5.70; pIC50 (BRAF): < 4.30"
